Reference: patent US11229664B2, “Treatment of myelosuppression” (priority 2012, dated 2022)
Values joined by “and” are separate entries in the source; they are usually repeats but may differ in a detail not shown here. Identical values can stand only once.

Test system: platelets
Assay: Clinical trial, metastatic pancreatic cancer: platelet count / thrombocytopenia grade
Format: in vivo, human
Set-up: Platelet count at start of cycle, Cycle 1: unit not given here; Platelet count at start of cycle, Cycle 4 / Platelet count: unit: ×10^3/μl blood
Settings: for Platelet count: open-label randomized trial, per arm
Excerpt: Male and non-pregnant, non-lactating, female patients, aged 18 to 75, with histologically confirmed metastatic adenocarcinoma of the pancreas were enrolled in the trial. […] Treatment consisted of a series of 28-day cycles, wherein the last day of one cycle (e.g., day 28, cycle 1) was immediately followed by the first day of the next cycle (e.g., day 1, cycle 2). […] Nab-paclitaxel and gemcitabine therapy was given as described in the prescribing information for Abraxane® and Gemzar®. See also, Von Hoff et al., 2011, J. […] As a substantially non-anticoagulant heparinoid, ODSH can be administered at a dose that is greater than the fully anticoagulant dose of unfractionated heparin, without concern for anticoagulant effect, as shown in the Results below. An initial run-in period was conducted in which ten patients were treated with the gemcitabine, nab-paclitaxel, and ODSH regimen described above. After all ten patients had completed at least one 28-day cycle, the data were reviewed and an open-label randomized study initiated, with two arms (ODSH arm and Control arm). In the ODSH arm, the dosing regimen was the same as in the run-in period (gemcitabine, nab-paclitaxel, and ODSH). In the Control arm, patients were given the same gemcitabine and nab-paclitaxel regimen as in the run-in period, but without ODSH. […] Platelet counts, total white blood cell counts, and absolute neutrophil counts were performed. Grading of thrombocytopenia and/or neutropenia was performed according to the following standards: [table]

[1] = ODSH 4 mg/kg bolus + 0.375 mg/kg/hr 48 h, adjunct to gemcitabine/nab-paclitaxel
[2] = ODSH adjunct to gemcitabine/nab-paclitaxel
[3] = ODSH adjunctive to gemcitabine and nab-paclitaxel, blood drawn before treatment that day, individual patients
[4] = all samples (FIG. 10A), ODSH adjunct to gemcitabine/nab-paclitaxel
[5] = day 15, first cycle, ODSH adjunct to gemcitabine/nab-paclitaxel

**Q.** Which results are given for “substantially 2-O, 3-O desulfated heparin [ODSH]”?
**A.** Patients with platelet count at beginning of fourth cycle greater than at beginning of first cycle [1]: 9 out of 10; Patients with platelet count at beginning of third cycle greater than at beginning of first cycle [1]: Eight out of 9; Patients with platelet count at beginning of second cycle greater than at beginning of first cycle (ODSH 4 mg/kg bolus + 0.375 mg/kg/hr 48 h, days 1, 8, 15 of 28-day cycles, adjunct to gemcitabine/nab-paclitaxel): Ten out of 10 and 10/10; Patients exhibiting thrombocytopenia at the start of the second cycle [2]: None; Patients exhibiting thrombocytopenia at the start of the third cycle [2]: one of 8; Patients with platelet counts higher at the beginning of cycle 3 than at the beginning of cycle 2 [2]: 6/9; Platelet Count, Cycle 1 Day 1 (ODSH adjunctive to gemcitabine and nab-paclitaxel, blood drawn before treatment administration (before any chemotherapy), individual patients): 313 ×10^3/μl blood and 264 ×10^3/μl blood and 191 ×10^3/μl blood and 274 ×10^3/μl blood and 276 ×10^3/μl blood and 120 ×10^3/μl blood and 271 ×10^3/μl blood and 342 ×10^3/μl blood and 429 ×10^3/μl blood and 180 ×10^3/μl blood; Platelet Count, Cycle 1 Day 8 [3]: 205 ×10^3/μl blood and 167 ×10^3/μl blood and 108 ×10^3/μl blood and 150 ×10^3/μl blood and 239 ×10^3/μl blood and 86 ×10^3/μl blood (2×) and 230 ×10^3/μl blood and 206 ×10^3/μl blood and 214 ×10^3/μl blood; Platelet Count, Cycle 1 Day 15 [3]: 135 ×10^3/μl blood and 178 ×10^3/μl blood and 108 ×10^3/μl blood and 75 ×10^3/μl blood and 220 ×10^3/μl blood and 76 ×10^3/μl blood and 181 ×10^3/μl blood and 134 ×10^3/μl blood and 260 ×10^3/μl blood and 63 ×10^3/μl blood; Platelet Count, Cycle 2 Day 1 [3]: 419 ×10^3/μl blood and 322 ×10^3/μl blood and 312 ×10^3/μl blood and 574 ×10^3/μl blood and 445 ×10^3/μl blood and 175 ×10^3/μl blood and 417 ×10^3/μl blood and 614 ×10^3/μl blood and 532 ×10^3/μl blood and 274 ×10^3/μl blood; Platelet Count, Cycle 2 Day 8 [3]: 434 ×10^3/μl blood and 336 ×10^3/μl blood and 241 ×10^3/μl blood and 424 ×10^3/μl blood and 05 ×10^3/μl blood and 83 ×10^3/μl blood and 402 ×10^3/μl blood and 375 ×10^3/μl blood and 257 ×10^3/μl blood and 95 ×10^3/μl blood; Platelet Count, Cycle 2 Day 15 [3]: 209 ×10^3/μl blood and 207 ×10^3/μl blood and 132 ×10^3/μl blood and 167 ×10^3/μl blood and 186 ×10^3/μl blood (2×) and 70 ×10^3/μl blood and 178 ×10^3/μl blood and 170 ×10^3/μl blood and 54 ×10^3/μl blood; Platelet Count, Cycle 3 Day 1 [3]: 510 ×10^3/μl blood and 327 ×10^3/μl blood and 362 ×10^3/μl blood and 655 ×10^3/μl blood and 418 ×10^3/μl blood and 123 ×10^3/μl blood and 487 ×10^3/μl blood and 628 ×10^3/μl blood and 387 ×10^3/μl blood and −361 ×10^3/μl blood; Platelet Count, Cycle 3 Day 8 [3]: 435 ×10^3/μl blood and 325 ×10^3/μl blood and 362 ×10^3/μl blood (2×) and 388 ×10^3/μl blood and 223 ×10^3/μl blood and 119 ×10^3/μl blood and 355 ×10^3/μl blood and 371 ×10^3/μl blood and 179 ×10^3/μl blood; Platelet Count, Cycle 3 Day 15 [3]: 207 ×10^3/μl blood and 170 ×10^3/μl blood and 163 ×10^3/μl blood and 188 ×10^3/μl blood and 171 ×10^3/μl blood (2×) and 63 ×10^3/μl blood and 172 ×10^3/μl blood and 189 ×10^3/μl blood and 71 ×10^3/μl blood; Platelet Count, Cycle 4 Day 1 [3]: 586 ×10^3/μl blood and 402 ×10^3/μl blood and 292 ×10^3/μl blood and 478 ×10^3/μl blood and 667 ×10^3/μl blood and 184 ×10^3/μl blood and 406 ×10^3/μl blood and 626 ×10^3/μl blood and 382 ×10^3/μl blood and 387 ×10^3/μl blood; Platelet Count, Cycle 4 Day 8 [3]: 464 ×10^3/μl blood and 339 ×10^3/μl blood and 355 ×10^3/μl blood and 468 ×10^3/μl blood and 193 ×10^3/μl blood and 188 ×10^3/μl blood and 507 ×10^3/μl blood and 448 ×10^3/μl blood and 185 ×10^3/μl blood; Platelet Count, Cycle 4 Day 15 [3]: 203 ×10^3/μl blood and 170 ×10^3/μl blood and 140 ×10^3/μl blood and 163 ×10^3/μl blood and 149 ×10^3/μl blood and 129 ×10^3/μl blood and 339 ×10^3/μl blood and 169 ×10^3/μl blood and 202 ×10^3/μl blood and 78 ×10^3/μl blood; Platelet Count, Cycle 5 Day 1 [3]: 499 ×10^3/μl blood and 351 ×10^3/μl blood and 266 ×10^3/μl blood and 389 ×10^3/μl blood and 275 ×10^3/μl blood and 106 ×10^3/μl blood and 512 ×10^3/μl blood and 607 ×10^3/μl blood and 427 ×10^3/μl blood and −288 ×10^3/μl blood; Platelet Count, Cycle 5 Day 8 [3]: 231 ×10^3/μl blood and 288 ×10^3/μl blood and 241 ×10^3/μl blood and 325 ×10^3/μl blood and 192 ×10^3/μl blood and 94 ×10^3/μl blood and 378 ×10^3/μl blood and 377 ×10^3/μl blood and 403 ×10^3/μl blood and 188 ×10^3/μl blood; Platelet Count, Cycle 5 Day 15 [3]: 132 ×10^3/μl blood and 169 ×10^3/μl blood and 153 ×10^3/μl blood and 109 ×10^3/μl blood and 58 ×10^3/μl blood and 193 ×10^3/μl blood and 194 ×10^3/μl blood and 72 ×10^3/μl blood; Platelet Count, Cycle 6 Day 1 [3]: 288 ×10^3/μl blood and 370 ×10^3/μl blood and 294 ×10^3/μl blood and 489 ×10^3/μl blood and 114 ×10^3/μl blood and 371 ×10^3/μl blood and 503 ×10^3/μl blood and 275 ×10^3/μl blood; Platelet Count, Cycle 6 Day 8 [3]: 384 ×10^3/μl blood and 321 ×10^3/μl blood and 207 ×10^3/μl blood and 336 ×10^3/μl blood and 85 ×10^3/μl blood and 313 ×10^3/μl blood and 493 ×10^3/μl blood and 148 ×10^3/μl blood; Platelet Count, Cycle 6 Day 15 [3]: 169 ×10^3/μl blood and 162 ×10^3/μl blood and 128 ×10^3/μl blood and 102 ×10^3/μl blood and 54 ×10^3/μl blood and 338 ×10^3/μl blood and 164 ×10^3/μl blood and 72 ×10^3/μl blood; Mean and median platelet counts at day 15 of treatment cycles 2 and 3 [4]: remained in the normal range; Mean and median platelet counts on the first day of treatment cycles 2 and 3 [4]: above 150,000; Platelet count at start of cycle, Cycle 1 (day 1 of cycle 1, before any chemotherapy, ODSH adjunctive to gemcitabine and nab-paclitaxel, individual patients): 264 and 191 and 274 and 276 and 120 and 271 and 342 and 429 and 180 and 313; Platelet count at start of cycle, Cycle 2 (day 1 of cycle 2, ODSH adjunctive to gemcitabine and nab-paclitaxel, individual patients): 322 and 312 and 574 and 445 and 175 and 417 and 614 and 537 and 274 and 419; Platelet count at start of cycle, Cycle 3 (day 1 of cycle 3, ODSH adjunctive to gemcitabine and nab-paclitaxel, individual patients): 327 and 362 and 655 and 418 and 123 and 628 and 387 and 361 and 510; Platelet count at start of cycle, Cycle 4 (day 1 of cycle 4, ODSH adjunctive to gemcitabine and nab-paclitaxel, individual patients): 402 and 292 and 478 and 667 and 184 and 406 and 626 and 382 and 387 and 586; Platelet count at start of cycle, Cycle 5 (day 1 of cycle 5, ODSH adjunctive to gemcitabine and nab-paclitaxel, individual patients): 351 and 389 and 275 and 512 and 427 and 288 and 499; Platelet count at start of cycle, Cycle 6 (day 1 of cycle 6, ODSH adjunctive to gemcitabine and nab-paclitaxel, individual patients): 489 and 371 and 503 and 275 and 288; Platelet count at start of cycle, Cycle 7 (day 1 of cycle 7, ODSH adjunctive to gemcitabine and nab-paclitaxel, individual patients): 454; Patients with no more than mild thrombocytopenia after two doses of treatment [5]: 90%; Patients with no thrombocytopenia after two doses of treatment [5]: 40%; Patients with no thrombocytopenia after five doses of treatment (day 15 of cycle 2, ODSH adjunct to gemcitabine/nab-paclitaxel): 7 out of 10; Patients thrombocytopenic at the beginning of cycles 2 and 3 (mild (Grade 1), after three or six doses of gemcitabine and nab-paclitaxel with ODSH): one; Platelet count (Cycle 1 Day 1): 248; Platelet count (Cycle 1 Day 15): 143; Platelet count (Cycle 2 Day 1): 336; Platelet count (Cycle 2 Day 15): 135; Platelet count (Cycle 3 Day 1): 393; Platelet count (Cycle 3 Day 15): 171; Platelet count (Cycle 4 Day 1): 404; Platelet count (Cycle 4 Day 15): 156; Platelet count (Cycle 5 Day 1): 389
